From patent publication US20240009150A1, “CAPSAICYNS IN THE TREATMENT OF LEAKY GUT” (AXICHEM AB [SE]/[SE], priority 2020, published 2024)

System: Salmonella enterica subsp. enterica serovar Paratyphi C (ATCC® BAA1714™)
Assay: Inhibition of biofilm formation with different capsaicyn compounds, crystal violet staining assay (Example 6)
Assay type: cell-based
Details: for Biofilm (OD 595 nm): 24 hr, 30° C.
Procedure: Biofilm formation was quantified with modifications using the method described by Stepanovic et al. (Journal of Microbiological Methods, 2000, 40(2), 175-19) with modifications. Using a 96-well microplate duplicate the test solutions were filled at the above selected doses. Cultures were grown for 18 hr in LB at 30° C. and adjusted to OD 0.1 at 600 nm. 20 μL of the culture were added into each well and the remainder of the volume to 200 μL per well was filled with LB. Unused external wells were filled with 200 μL of sterile water to prevent evaporation.
After 24 hr of incubation, supernatants were discarded, and the wells were washed three times with 200 μL of sterile phosphate buffered saline (PBS). Bacteria adhered to the wells were fixed with 200 μL of methanol for 15 min, the methanol was discarded, and the plates dried at 25° C.
Each well was stained with 200 μL of 0.3% (w/v) crystal violet solution for 5 min at 25° C. Crystal violet excess was pipetted out, and the wells were rinsed five times with sterile PBS. 200 μL of 33% (v/v) glacial acetic acid were added to the wells for 30 min to solubilise the dye adhered to the cell walls. Optical density (OD) was measured at 595 nm using a microplate spectrophotometer as a direct measure of biofilm formation. P. aeruginosa in 3% DMSO will be used as the negative control.
A stock solution of 500 μg of phenylcapsaicin, capsaicin, compound a, compound b, compound c, was prepared by dissolving 500 μg in 100 μl of ethanol and 900 μl of sterile water. The stock solutions were sequentially diluted with quadruple volumes of solvent (10% aqueous ethanol solution) to yield 125/31.25 (32)/7.81 (8)/1.95 (2) μg/ml test solutions.
ATCC® BAA1714™ was used to determine the biofilm inhibition activity. Inducer N-hexanoyl homoserine lactone (C6-HSL) was purchased from Sigma-Aldrich. ATCC® BAA1714™ was cultivated in Luria-Bertani (LB) medium (LB, 5 g yeast extract, 10 g tryptone, 5 g NaCl, 1 L water) at 37° C. overnight under aerobic conditions.
Crystal violet staining assay was performed as in Experiment 3, using ATCC® BAA1714™ in 3% DMSO as the control.

[1] = any dose tested (125, 32, 8, 2 μg/ml)

| Structure (SMILES) | Biofilm (OD 595 nm) (2 μg/mL) | Biofilm (OD 595 nm) (8 μg/mL) | Biofilm (OD 595 nm) (32 μg/mL) | Biofilm (OD 595 nm) (125 μg/mL) | biofilm formation inhibition activity, in words [1] | biofilm formation inhibition activity relative to the activity of phenylcapsaicin (2 μg/ml dose) [%] | biofilm formation inhibition activity, in words (2 μg/ml dose) |
| --- | --- | --- | --- | --- | --- | --- | --- |
| COc1cc(CNC(=O)CCCCC#CC(C)(C)C)ccc1O [compound b] | 8.1 | 7.9 | 8.2 | 8.8 | did not show biofilm formation inhibition activity | – | – |
| COc1cc(CNC(=O)CCCCC#CC(C)(C)C)ccc1OC(C)=O [compound c] | 8.0 | 8.6 | 8.5 | 8.7 | did not show biofilm formation inhibition activity | – | – |
| COc1cc(CNC(=O)CCCCC#CC2CCCCC2)ccc1O [compound a] | 6.5 | 6.8 | 7.1 | 8.2 | – | ~33 | modest biofilm formation inhibition activity |
